According to a melting point compilation (Tetko et al.; mined from patent text by program, amines drawn as free bases though some values may be those of a salt):

| SMILES | melting point [°C] |
| --- | --- |
| Cc1ccc(-c2nc(CCl)co2)o1 | 93 to 94 |
| N#Cn1c(SCC(=O)N2CCCc3ccccc32)nc2ccccc21 | 153 to 154 |
| N#Cc1ccc(N2C(=O)NC3(CCOCC3)C2=O)cc1C(F)(F)F | 192 to 193 |
| CC(=O)Nc1c(Cl)cc2c(=O)c(C(=O)O)cn3c2c1CCC3C (configuration not stated) | 234 to 236 |
| CC(C)(C)c1cc(CCc2ccccc2NC(=O)NC2CCN(Cc3ccc(C(F)(F)F)cc3C(F)(F)F)CC2)cc(C(C)(C)C)c1O | 156 to 157 |
| COCNC(=O)NC1CCC(=O)c2sccc21 (configuration not stated) | 155 to 158 |
| Nc1ccccc1-n1sc(-c2ccccc2)cc1=O | 145 to 146 |
| O=C1Cc2c(Cl)cccc2Sc2ccc(F)cc21 | 135 to 137 |
| O=C1NCC(=O)c2[nH]cnc2N1 | > 300 |
| N#Cc1c(Cl)c([N+](=O)[O-])cc2[nH]c(=O)c(=O)[nH]c12 | 327 to 331 |
| Cn1c2cc(C#N)ccc2c2nc3ccccc3nc21 | 284 to 287 |
| O=C1CCC(c2ccc(-n3cnc4ccccc43)cc2)=NN1 | 262 to 264 |
| CCCn1c(=O)c2c(nn3cc(-c4cccc(OC)c4)[nH]c23)n(Cc2ccccc2)c1=O | 249 to 250 |
| CC(NC(=O)C1CCCN1C(=O)CNP(=O)(Cc1ccccc1)Cc1ccccc1)C(=O)OCc1ccccc1 (configuration not stated) | 77 to 80 |
| Cc1ccc(N2C(=O)C(O)=C(C(=O)c3ccc(C(C)C)cc3)C2c2ccc(OC3CCOCC3)cc2)nn1 (configuration not stated) | 275 |
| CC(NC(=O)c1cccc(C2(C)C(=O)Nc3cc(Cl)cc(Cl)c3C2=O)c1)c1ccccc1 (configuration not stated) | 91 to 94 |
| CNCc1cn(-c2ccccc2)nc1OCc1ccc(OCc2nc(-c3ccco3)oc2C)c(OC)c1 | 103 to 104 |
| CC1Cc2cc3c(cc2C(c2ccc([N+](=O)[O-])cc2)=NN1c1n[nH]c(=O)s1)OCO3 (configuration not stated) | 288 |
| CCOC1(OCC)C[C@@H](C(=O)O)[C@@H]1C(=O)O (relative stereo) | 118 to 120 |

| SMILES | melting point [°C] |
| --- | --- |
| COc1ccc2cc(-c3ccc(C(=O)O)cc3)ccc2c1 | 288 to 289 |
| COCCc1nc2c(N)nc3cc(OCc4ccccc4)ccc3c2n1CCCCNC(N)=O | 170 to 171 |
| Cc1ccc(S(=O)(=O)Nc2cc(C(=O)O)c3c(c2)C(C(=O)O)CC(c2ccccc2)N3)cc1 (configuration not stated) | 235 to 237 |
| CSc1cccc(Cc2sc(NC(C)=O)nc2CO)c1 | 140 to 142 |
| Cc1cc(C)cc(S(=O)(=O)n2c(CCCC(=O)O)cc3cc(Cl)ccc32)c1 | 204 to 206 |
| O=C(Nc1ccc(Oc2ccnc(N3CCC(O)CC3)n2)c2ccccc12)c1cc(F)cc(N2CCOCC2)c1 | 106 to 108 |
| COc1ccc(-c2ccc(C(C)=NOCCO)cc2)cc1 | 164 to 166 |
| N#Cc1c(N2CCN(C(=O)c3cccs3)CC2)c2cc(F)ccc2n(Cc2ccccc2)c1=O | 246 |
| O=Cc1c2ccccc2cc2ccc(Cl)cc12 | 148 to 150 |
| O=C(O)C(O)CCCCCc1ccc(Cl)cc1 (configuration not stated) | 78 to 81 |
| CCOC(=O)/C(=N\OC(C)(C)C(=O)OC(C)(C)C)c1nc(C(c2ccccc2)(c2ccccc2)c2ccccc2)sc1N | 124 to 125 |
| CCN1CCCC1CNC(=O)c1cc(S(=O)(=O)NC)cc2c1OCCO2 (configuration not stated) | 136 to 137 |
| CCCCCCCCCCCCCCCCOCCSCCOC(=O)NCc1ccccn1 | 55 to 56 |
| COc1cccc(C(Cn2ccnc2)=[N+](C)[O-])c1 | 87 to 90 |
| COC(C)Cc1ccc(OCCNc2ncnc3ccccc23)c(C)c1 (configuration not stated) | 95 to 97 |
| CC1OOC2(/C=C\c3ccc(C(F)(F)F)cc3C(F)(F)F)CC1CC(=O)C2C (configuration not stated) | 124 |
| O=C(O)CCCCCCCn1c(-c2ccccc2)nc(-c2ccccc2)c1-c1ccccc1 | 162 |
| COc1cc(F)ccc1C(=O)NC(C)c1nc(-c2ccncn2)cc(=O)n1C (racemic) | 201 to 203 |
